Measured values as given in patent publication US8101628B2, “Imidazolidinonyl aminopyrimidine compounds for the treatment of cancer” (Eli Lilly and Company, priority 2007, dated 2012).
Where two headings read alike, the source gives them in different places.

How the values were obtained:
[1] = molecular target: T1, Plk1-Flag-His6 tag fusion enzyme (Human Plk1) (Homo sapiens, UniProt P53350); test: Plk1 Inhibition Assay; assay type: biochemical; settings: 5.0 μM ATP, GST-Cdc25c (1-206) substrate, 60 min room temperature; MSR 3.6; read-out: Plk1 IC50 (absolute IC50)
T1 construct: made in house; host or cells: Sf9 cells (baculovirus, pFastBac vector)
T1 sequence (P53350 whole entry, the tested form may be a part): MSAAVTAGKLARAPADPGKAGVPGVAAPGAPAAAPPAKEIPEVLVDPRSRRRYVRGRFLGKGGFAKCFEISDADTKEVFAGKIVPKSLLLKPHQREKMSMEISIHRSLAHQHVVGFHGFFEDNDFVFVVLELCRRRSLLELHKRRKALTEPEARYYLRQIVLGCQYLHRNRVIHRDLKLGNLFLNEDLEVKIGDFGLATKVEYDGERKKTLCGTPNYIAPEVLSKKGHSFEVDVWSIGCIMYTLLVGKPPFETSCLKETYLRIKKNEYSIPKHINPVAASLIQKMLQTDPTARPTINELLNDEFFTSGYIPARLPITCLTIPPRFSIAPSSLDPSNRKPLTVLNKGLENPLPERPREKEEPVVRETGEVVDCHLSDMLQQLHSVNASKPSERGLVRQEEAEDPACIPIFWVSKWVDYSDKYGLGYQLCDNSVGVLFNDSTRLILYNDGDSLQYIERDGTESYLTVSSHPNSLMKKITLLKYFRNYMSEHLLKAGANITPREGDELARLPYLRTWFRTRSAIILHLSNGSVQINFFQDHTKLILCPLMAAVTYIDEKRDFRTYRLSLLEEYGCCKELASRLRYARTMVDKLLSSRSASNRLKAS
Source text: Human Plk1 cDNA, which may be obtained from a number of sources, such as Incyte (accession number: NM_005030), may be directly linked at one of its termini with a polynucleotide sequence expressing a His6 tag, such as the C-terminal FLAG-His6 tag, and inserted into an appropriate expression vector, such as a pFastBac™ vector (Invitrogen) and transfected into an appropriate system, such as baculovirus similar to what has been reported by Yue-Wei Qian, et al., Science 282, 1701 (1998) for xPlkk1. If a viral expression system is used, then the virus (e.g., baculovirus bearing a Plk1-Flag-His6 tag polynucleotide construct) is infected into a culture of a suitable host cell, such as Sf9 cells. […]
Plk1 kinase reactions contain Plk1-Flag-His6 tag fusion enzyme (0.2 ng/μL) in a buffer containing 50 mM HEPES, pH 7.3, 1.0 mM dithiothreitol, 5.0 μM ATP, 10 mM MgCl2, 0.01% TRITON® X-100, 0.4 μCi ^33P-ATP, and 0.06 μg/μL GST-Cdc25c (1-206) peptide. […] Wells are dried before addition of 40 μL of MicroScint™20 (Packard) and then counted on a Wallac MICROBETA® Jet. The percentage inhibition values from the 10-point concentration response data are subsequently analyzed, for example, using ACTIVITY BASE™ software (IDBS), using a 4-parameter logistic equation. Absolute IC50 values are calculated from the resulting curve fit.

[2] = system: HCT116 cells; test: Antiproliferative Assay; assay type: cell-based; settings: Homo sapiens, HCT-116, e.g. 72 hours exposure, Alamar Blue, n=3, MSR 3.1
Method: The effects of compounds on cell proliferation can be determined using cells and cell proliferation methods well-known in the art (Robert C. Squatrito et al., Gynecological Oncology, 58, 101-105, (1995)). For example, HCT116 cells, which may be obtained from the American Type Culture Collection, may be seeded at 2000 cells/well in 96-well plates and allowed to attach overnight in a humidified CO2 incubator at 37° C. Following the 20-24 hour incubation, half-log serially diluted compounds are added and the plates are returned to the incubator. After an appropriate length of exposure (e.g., 72 hours), cell proliferation is estimated using well-known methods. In one method, 10 μL of a tetrazolium salt, such as Alamar Blue™ is added to the cell plates. After an appropriate exposure to the dye, fluorescence (530 nm excitation, 580 nm emission) is determined. The resulting IC50 has an MSR of 3.1.

[3] = system: HeLa Cells; test: pHH3(S10), Mitotic Cells, and DNA Content Assays; assay type: cell-based; settings: Homo sapiens, 23 hours exposure
Method: HeLa Cells from the American Type Culture Collection (ATCC) are plated at 200 cells/well in 96 well […] BIOCOAT™ plates, and are incubated in MEM (Minimum Essential Medium, e.g., GIBCO, catalog #11095) with 10% FBS (Fetal Bovine Serum) in 37° C., 5% CO2 for 24 hours. Cells are treated by adding compound (in 0.25% DMSO) to the medium, dosing at 10 points across the range 0.5 μM to 0.0098 μM. After 23 hours exposure to the compounds, cells are fixed, for example with the PREFER™ fixative [Anatech LTD., Catalog #414] for 30 min then are permeabilized with 0.1% TRITON® X100 in phosphate buffered saline (PBS) solution for 15 min. Cells are washed 3 times with PBS then digested with 50 μg/mL RNAse. Primary antibody, phosphohistone H3 (Upstate Cat#06-570), is added at 1:500 in PBS with 1% bovine serum albumin (BSA) to the cells over night at 4° C. After 3 PBS washes, cells are incubated with Alexa488 labeled secondary antibody (Invitrogen cat #A11008) for 1 hour at room temperature. Again they are washed 3 times with PBS, and then 15 μM propidium iodide (Molecular Probes cat #P3566) is added for 30 min to stain nuclei. Fluorescence Plates are scanned with ACUMEN EXPLORER™ [Laser-scanning fluorescence microplate cytometer (comprising of 488 nm argon ion laser excitation and multiple photomultiplier tube detection), manufactured by TTP LABTECH LTD] to measure phosphohistone H3, DNA content and mitotic cells as measured by DNA condensation. Image analyses are based on cellular fluorescent signals for identifying cells in different subpopulations. pHH3(S10) positive cells are identified by mean intensity at 500-530 nm above the threshold. Total intensity at 655-705 nm from propidium iodide/DNA is used to identify individual cells (cells with DNA content from 2N to 4N) and subpopulations in cell cycle (2N cells, 4N cells). Peak intensity at 575-640 nm is used to identify DNA condensation that is used as the marker to identify mitotic cells among 4N cells. […] The EC50 is determined by curve fitting to a four parameter logistic for each output using ACTIVITY BASE™. […]

[4] = in man, cited from earlier work
[5] = system: HCT116, A549 and NCIH460 murine xenografts; settings: cited from earlier work

IC50 [1] [nM] | IC50 [2] [nM] | EC50 ([3]; n=1, MSR 2.5, read-out: mitotic EC50) [nM] | EC50 ([3]; n=2, MSR 2.4, read-out: DNA content EC50) [nM] | EC50 ([3]; n=2, MSR 2.6, read-out: pHH3(s10) EC50) [nM] | SMILES | clearance (CL) ([4]; phase II clinical trials) [mL/min] | dose-limiting toxicity [4] | activity in preclinical xenograft models [5]
~23 | 11 | 45 | 40 | 42 | O=C1NCCN1CCNc1ncc(Cl)c(-c2cc3cccc(-c4cc(F)ncc4Cl)c3s2)n1 [Example 13, 1-(2-{5-Chloro-4-[7-(5-chloro-2-fluoropyridin-4-yl)-benzo[b]thiophen-2-yl]pyrimidin-2-ylamino}ethyl)imidazolidin-2-one] | – | – | –
– | – | – | – | – | CC[C@@H]1C(=O)N(C)c2cnc(Nc3ccc(C(=O)NC4CCN(C)CC4)cc3OC)nc2N1C1CCCC1 [BI-2536] | > 1000 | dose limited by myelosupression | demonstrated activity
